Data taken from patent publication US20050257280A1, “Nonhuman model animal nonresponsive to endotoxin and lipoprotein or lipopeptide” (priority 2002, published 2005).

Assays:
Format in all cases: cell-based, mouse
[1] = system: ERK1/2, JNK and p38; test: Activation of MAP kinases in peritoneal macrophages (Western blot); conditions: LPS 100 ng/ml, MALP-2 3 ng/ml, R848 100 nM, 10 min and 20 min
Procedure: Next, peritoneal macrophages from wild-type and TIRAP^−/− mice were stimulated with 100 ng/ml of LPS, 3 ng/ml of MALP-2, and 100 nM of R848 for 10 min and 20 min, respectively. The cells were then lysed in the lysis buffer containing 1.0% Nonidet P-40, 150 mM NaCl, 20 mM tris-C1 (pH 7.5), 5 mM EDTA and protease inhibitor cocktail (Roche). The cell lysates were dissolved by SDS-PAGE and transferred onto a PVDF membrane (BioRad). The above-mentioned PVDF membrane was blotted with […] specific to ERK1/2, JNK, and p38 (Santa Cruz), and […] specific to phosphorylated ERK 1/2, phosphorylated JNK, and phosphorylated p38 (Cell Signaling) and Western blot analysis was conducted by visualizing with an enhanced chemiluminescence system (NEN Life Science Product) (FIG. 12). […] The result is quite similar to those observed in MyD88^−/− mice (Kawai et al.: Immunity 11: 115-22; 1999).

[2] = system: IRAK-1; test: IRAK-1 in vitro kinase assay on lysates of stimulated peritoneal macrophages
Procedure: IRAK-1 is activated in the downstream of MyD88. […] In vitro kinase assay was conducted as described previously (Sato et al. II), and kinase activation of IRAK-1 was measured. The same lysates were blotted with anti-IRAK-1 antibody, and the effect of IRAK-1 was analyzed (FIG. 13).

[3] = system: splenocytes from wild-type and TIRAP−/− mice; test: Proliferation of splenocytes in the presence of IL-1, PHA or both ([3H]-thymidine uptake); conditions: 100 U/ml IL-1β, 10 ng/ml PHA, 72 hr + 12 hr
Text: As shown in MyD88-, TRAF6-, and IRAK-4-deficient mice, signaling pathway via IL-1 receptor family utilizes the same signaling pathway as that of TLRs (Adachi et. al., Immunity. 9, 143-150, 1998; Lomaga et al., Gene Dev. 13, 1015-24, 1999; Naito et al., Gene Cells 4, 353-62, 1999; Suzuki et al., Nature 416, 750-56, 2002). To investigate the proliferation of splenocytes from TIRAP^−/− mice induced by IL-1 or Phytohemagglutinin (PHA) being co-stimulatory substance with IL-1, splenocytes from wild-type and TIRAP^−/− mice were cultured for 72 hr and proliferated in the presence of 100 U/ml of IL-1β, and of 10 ng/ml of PHA, and in the co-presence of IL-1β and PHA, then supplemented with 1 μCi of [^3H]-thymidine, further cultured for 12 hr, and measured the uptake of [^3H] with a β scintillation counter. Proliferation of splenocytes was determined by measuring the [^3H] level of [^3H] thymidine ingested into a cell.

[4] = system: peritoneal macrophages from wild-type and TIRAP−/− mice; test: Inflammatory cytokine production of peritoneal macrophages (ELISA of culture supernatant); conditions: LPS 1 ng/ml 24 hr, MALP-2 and PGN at various concentrations
Procedure: Next, LPS-induced inflammatory cytokine production of peritoneal macrophages from wild-type and TIRAP^−/− mice was analyzed. 2 ml of 4% thioglycollate medium (DIFCO) were intraperitoneally injected into TIRAP^−/− and wild-type mice, respectively. Three days later, peritoneal exudate cells were isolated from peritoneal cavity of each mouse. The cells were cultured for 2 hr at 37° C. in RPMI 1640 medium (GIBCO) supplemented with 10% fetal bovine serum (GIBCO), nonadherent cells were removed by washing with Hank's buffered salt solution: HBSS; GIBCO) at ice temperature, and adherent cells were used as peritoneal macrophages. Each obtained peritoneal macrophage was cultured with 1 ng/ml of Re-595 LPS for 24 hr, and concentration of IL-6, TNF-α and IL-12 in the culture supernatant was measured according to a common procedure by ELISA (FIG. 7; means±SD of triplicates, N.D. Not detected).
IL-6, TNF-α and IL-12 in the culture supernatant were measured using mycoplasmal lipopeptide MALP-2 being TLR2 ligand (synthesized and purified as described in Takeuchi-MALP) and Staphylococcus aureus peptidoglycan (PGN) (Fluka) at various concentrations (FIG. 9). […] Next, peritoneal macrophages of wild-type and TIRAP^−/− mice were stimulated with Poly I:C being TLR3 ligand (Amersham) for 4 hr and 8 hr. Total RNA was extracted, and the expression of IFN-β mRNA was analyzed by Northern blot method. […]

[5] = system: NF-κB; test: NF-κB DNA binding in nuclear extracts of peritoneal macrophages (EMSA); conditions: LPS 100 ng/ml, MALP-2 3 ng/ml, R-848 10 nM
[6] = system: IFN-β mRNA; test: Expression of IFN-β mRNA in peritoneal macrophages (Northern blot); conditions: stimulated 4 hr and 8 hr
Procedure: IL-6, TNF-α and IL-12 in the culture supernatant were measured using mycoplasmal lipopeptide MALP-2 being TLR2 ligand (synthesized and purified as described in Takeuchi-MALP) and Staphylococcus aureus peptidoglycan (PGN) (Fluka) at various concentrations (FIG. 9). […] Next, peritoneal macrophages of wild-type and TIRAP^−/− mice were stimulated with Poly I:C being TLR3 ligand (Amersham) for 4 hr and 8 hr. Total RNA was extracted, and the expression of IFN-β mRNA was analyzed by Northern blot method. At that time, 18S ribosomal RNA was used as control. Expression of IFN-β mRNA was induced in both wild-type and TIRAP^−/− mice (FIG. 10).

[7] = TIRAP−/− peritoneal macrophages
[8] = wild-type peritoneal macrophages

Compound | phosphorylation/activation of ERK1/2, JNK and p38 ([1]; wild-type macrophages) | autophosphorylation (Auto) of IRAK-1 ([2]; TIRAP−/− macrophages) | autophosphorylation (Auto) of IRAK-1 ([2]; wild-type macrophages) | proliferation of splenocytes (uptake of [3H]-thymidine) ([3]; TIRAP−/− splenocytes) | proliferation of splenocytes (uptake of [3H]-thymidine) ([3]; wild-type splenocytes) | other results
CCOCc1nc2c(N)nc3ccccc3c2n1CC(C)(C)O [R-848] | phosphorylated and activation was induced | autophosphorylation was induced | induced autophosphorylation |  |  | 
IL-1: Interleukin-1 cytokine, used as IL-1β at 100 U/ml |  |  |  | enhanced proliferation | enhanced proliferation | 
MALP-2 | phosphorylated and activation was induced | not observed | induced autophosphorylation |  |  | phosphorylation/activation of ERK1/2, JNK and p38 ([1]; TIRAP−/− macrophages): not observed; production of IL-6, TNF-α and IL-12 [4, 7]: severely impaired; production of IL-6, TNF-α and IL-12 [4, 8]: dose-dependent production; NF-κB DNA binding effect ([5]; TIRAP−/− macrophages, LPS at 10 min): significantly inhibited; NF-κB DNA binding effect ([5]; wild-type macrophages, LPS and MALP-2 at 10 min): observed
Phytohemagglutinin [PHA] |  |  |  | enhanced proliferation | enhanced proliferation | 
Poly I:C |  |  |  |  |  | expression of IFN-β mRNA [6, 7]: induced; expression of IFN-β mRNA [6, 8]: induced
